The values that follow are results of earlier work, collected in paper PMC9076486 (RSC Advances, 2019).

Usually pIC50 stands for the negative decadic logarithm of the IC50, by convention in mol/L.

pIC50: −log10 of the molar value.

This data set has as its system superoxide anions. The conditions noted are these: pH 7.4; for pIC50: read-out: IC50 (SOD activity).

Turning to “CuZn–SOD: native copper–zinc superoxide dismutase enzyme, value from ref. 42”, the “k cat (SOD activity)” value is on record as 430 10^6 M^−1 s^−1 and the pIC50 is 8.00.

Consider `[Cu+2].[O-][Cl+3]([O-])([O-])[O-].[O-][Cl+3]([O-])([O-])[O-]` [Cu(ClO4)2, copper(II) perchlorate], for which the “k cat (SOD activity)” value was 2.7 10^6 M^−1 s^−1 and the negative-log IC50 (pIC50) was 5.96.
